Our source for the IC50 values is patent US8153631B2, “Triazole compounds and uses related thereto” (Amgen Inc., priority 2003, dated 2012).

Structures can show the parent of a compound that is named as a salt.

This test deals with T1, human HSD1 (recombinant HSD1) (Homo sapiens, UniProt P28845).
T1 construct: made in house
T1 sequence (P28845 whole entry): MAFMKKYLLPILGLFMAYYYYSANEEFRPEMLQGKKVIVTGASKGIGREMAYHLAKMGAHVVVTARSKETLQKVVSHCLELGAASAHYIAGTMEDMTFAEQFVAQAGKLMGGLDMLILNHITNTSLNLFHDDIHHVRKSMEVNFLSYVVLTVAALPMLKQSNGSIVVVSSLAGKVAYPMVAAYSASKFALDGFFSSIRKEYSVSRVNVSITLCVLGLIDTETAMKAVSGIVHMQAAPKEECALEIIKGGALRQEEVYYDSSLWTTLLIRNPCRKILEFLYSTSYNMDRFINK
The experiment in a line: In vitro HSD1 activity inhibitory action, SPA of cortisone to cortisol conversion. In kind it is biochemical. Conditions: recombinant human HSD1 0.1 μg/ml, 500 μM NADPH, 16 nM 3H cortisone, room temperature 90 min, read-out: hHSD1 IC50. The protocol: In Vitro HSD1 (Hydroxysteroid Dehydrogenase 1) Activity Inhibitory Action
The HSD1 inhibitory activity was examined by quantitative determination by an SPA (scintillation proximity assay) system of the suppressive action on the conversion from cortisone to cortisol using human HSD1 (hereinafter recombinant HSD1) expressed using a baculo-virus system as an enzyme source. For the reaction, a reagent was added to a 96 well plate (96 well Opti-plates™-96 (Packard)) to the following final concentration and a volume of 100 μl was reacted at room temperature for 90 min. The reaction solution used was 0.1 μg/ml recombinant HSD1, 500 μM NADPH, 16 nM ^3H cortisone (Amersham Biosciences, 1.78 Tbq/mol) dissolved in 0.1% BSA (Sigma)-containing PBS and the test drug was 2 μl of a compound solution (dissolved in DMSO). After 90 min, the reaction was stopped by adding PBS (40 μl, containing 0.1% BSA (Sigma)) containing 0.08 μg of anti-cortisol mouse monoclonal antibody (East Coast Biologics), 365 μg SPA PVT mouse antibody-binding beads (Amersham Biosciences) and 175 μM carbenoxolone (Sigma) to the reaction solution. After the completion of the reaction, the plate was incubated overnight at room temperature and the radioactivity was measured by Topcount (Packard). For control, the value (0% inhibition) of the well containing 2 μl of DMSO instead of the test drug was used, and for positive control, the value (100% inhibition) of the well containing carbenoxolone instead of the test drug at the final concentration of 50 μM was used. The inhibition (%) of the test drug was calculated by ((value of control−value of test drug)/(value of control−value of positive control))×100 (%). The IC50 value was analyzed using a computer-based curve fitting soft.
Turning to `Cn1c(C2CCN(c3c(Cl)cncc3Cl)CC2)nnc1C1(c2ccccc2)CCNCC1` [Ex. 1-16], the IC50 was 0.01 to 1 µM.
For `Cn1c(N2CCc3ccccc3C2)nnc1C1(c2ccccc2)CC1` [Ex. 2-24] the value was below 0.01 µM; for `Cn1c(-c2ccc(N3CCOC3=O)cc2Cl)nnc1C1(c2ccccc2)CC1` [Ex. 1-36], below 0.01 µM.
For the compound `Cn1c(N2CCC(N)CC2)nnc1C1(c2ccccc2)CC1` [Ex. 2-8], the IC50 was in the range of 0.01 to 1 µM.
For `C=CCn1c(N2CCC(Oc3ncc(Cl)cc3Cl)CC2)nnc1C1(c2ccccc2)CC1` [Ex. 2-75], the IC50 was below 0.01 µM.
For the compound `Cn1c(C2CCN(c3c(Cl)cncc3Cl)CC2)nnc1C1(c2ccc(Cl)cc2)CC1` [Ex. 1-1, 3′,5′-dichloro-4-(5-(1-(4-chlorophenyl)cyclopropyl)-4-methyl-4H-[1,2,4]triazol-3-yl)-3,4,5,6-tetrahydro-2H-[1,4′]bipyridyl hydrochloride], the IC50 was 0.01 to 1 µM.
In the case of `Cn1c(-c2ccc(NC(=O)CO)cc2Cl)nnc1C1(c2ccccc2)CC1` [Ex. 1-23], the IC50 is below 0.01 µM.
As for `CCCC(=O)Nc1ccc(-c2nnc(C3(c4ccccc4)CC3)n2C)c(Cl)c1` [Ex. 1-28], the IC50 was below 0.01 µM.
The value for `CN(C)CCNC(=O)c1ccc(-c2nnc(C3(c4ccccc4)CC3)n2C)c(Cl)c1` [Ex. 1-87] was 0.01 to 1 µM; that for `Cn1c(N2CCC(Oc3ccccc3Cl)CC2)nnc1C1(c2ccccc2)CC1` [Ex. 2-30] was below 0.01 µM.
Turning to `CC(C)n1c(-c2cccc(C(N)=O)c2)nnc1C1(c2ccc(F)cc2)CC1` [Ex. 1-161], the IC50 is below 0.01 µM.
As to `Cn1c(-c2ccc(C(=O)NCCO)cc2Cl)nnc1C1(c2ccccc2)CC1` [Ex. 1-78], the IC50 lay in the range of 0.01 to 1 µM.
For `Cn1c(-c2ccc(N3CCOCC3)cc2Cl)nnc1C1(c2ccc(F)cc2)CC1` [Ex. 1-55] the value was below 0.01 µM.
On to `Cn1c(N2CCC(Oc3ccc(C(=O)O)cc3)CC2)nnc1C1(c2ccccc2)CC1` [Ex. 2-44], for which the IC50 was 0.01 to 1 µM.
As for `Cn1c(N2CCC(CO)CC2)nnc1C1(c2ccccc2)CC1` [Ex. 2-6], the IC50 was below 0.01 µM.
For `Cn1c(N2CCC(Oc3ccc(Cl)cn3)CC2)nnc1C1(c2ccccc2)CC1` [Ex. 2-39] the value was below 0.01 µM; for `Cn1c(-c2ccc(NC(=O)N3CCCC(O)C3)cc2Cl)nnc1C1(c2ccccc2)CC1` (stereo not drawn) [Ex. 1-41], 0.01 to 1 µM; for `Cn1c(N2CCC(Oc3cccc(C(N)=O)c3)CC2)nnc1C1(c2ccccc2)CC1` [Ex. 2-55], 0.01 to 1 µM.
The value for `Cn1c(N2CCC(Oc3ncc(Cl)cc3Cl)CC2)nnc1C1(c2ccc(Cl)cc2Cl)CC1` [Ex. 2-88] was 0.01 to 1 µM.
Consider `Cn1c(-c2ccc(C(=O)NCC(F)(F)F)cc2Cl)nnc1C1(c2ccccc2)CC1` [Ex. 1-83], for which the half-inhibitory concentration (IC50) was 0.01 to 1 µM.
The value for `COC(=O)c1cccc(OC2CCN(c3nnc(C4(c5ccccc5)CC4)n3C)CC2)c1` [Ex. 2-49] was below 0.01 µM.
The value for `CC(C)n1c(-c2ccc(C(N)=O)cc2)nnc1C1(c2ccc(F)cc2)CC1` [Ex. 1-145] was below 0.01 µM; that for `Cn1c(-c2ccc(N3CCCC3)cc2Cl)nnc1C1(c2ccccc2)CC1` [Ex. 1-57] was below 0.01 µM; that for `COC1CCN(CC(=O)Nc2ccc(-c3nnc(C4(c5ccccc5)CC4)n3C)c(Cl)c2)CC1` [Ex. 1-45] was 0.01 to 1 µM.
Take `Cn1c(N2CCC(Oc3ccc(F)cc3)CC2)nnc1C1(c2ccccc2)CC1` [Ex. 2-51]: the IC50 was below 0.01 µM.
The value for `CC(=O)NCCn1c(C2CCN(c3c(Cl)cncc3Cl)CC2)nnc1C1(c2ccccc2)CC1` [Ex. 1-7] was 0.01 to 1 µM; that for `Cn1c(C2(c3ccccc3)CC2)nnc1[C@H]1CC[C@H](C(=O)O)CC1` [Ex. 1-111] was 0.01 to 1 µM.
Take `Cn1c(-c2ccccc2Cl)nnc1C1(c2ccccc2)CC1` [Ex. 1-101]: the IC50 was below 0.01 µM.
`CCN(Cc1ccccc1)c1nnc(C2(c3ccccc3)CC2)n1C` [Ex. 2-92]: the IC50 is below 0.01 µM.
As for `Cn1c(-c2ccc(NC(N)=O)cc2Cl)nnc1C1(c2ccccc2)CC1` [Ex. 1-35], the IC50 is below 0.01 µM.
Turning to `Cn1c(-c2ccc(Cl)nc2Cl)nnc1C1(c2ccccc2)CC1` [Ex. 1-97], the IC50 was in the range of 0.01 to 1 µM.
The value for `Cn1c(-c2ccc(N3CCNC3=O)cc2Cl)nnc1C1(c2ccccc2)CC1` [Ex. 1-39] was below 0.01 µM; that for `CNC1CCN(c2nnc(C3(c4ccccc4)CC3)n2C)CC1` [Ex. 2-12] was 0.01 to 1 µM.
For `Cn1c(-c2ccc(Cl)cc2Cl)nnc1C1(c2ccc(F)cc2)CCCC1` [Ex. 1-123] the value was below 0.01 µM; for `CC(C)C(=O)Nc1ccc(-c2nnc(C3(c4ccccc4)CC3)n2C)c(Cl)c1` [Ex. 1-29], below 0.01 µM; for `Cn1c(-c2ccc(Cl)cc2N)nnc1C1(c2ccccc2)CC1` [Ex. 1-94], 0.01 to 1 µM.
On to `CN(C)C(=O)Nc1ccc(-c2nnc(C3(c4ccccc4)CC3)n2C)c(Cl)c1` [Ex. 1-33], for which the IC50 fell in the range of 0.01 to 1 µM.
Take `Cn1c(N2CCC(C(F)(F)F)CC2)nnc1C1(c2ccccc2)CC1` [Ex. 2-15]: the IC50 was below 0.01 µM.
For the compound `Cn1c(N2CCN(c3ccc(F)cc3)CC2)nnc1C1(c2ccccc2)CC1` [Ex. 2-89], the IC50 is 0.01 to 1 µM.
The value for `Cn1c(N2CCNCC2)nnc1C1(c2ccccc2)CC1` [Ex. 2-26] was 0.01 to 1 µM; that for `CNC(=O)C1CCN(c2nnc(C3(c4ccccc4)CC3)n2C)CC1` [Ex. 2-18] was 0.01 to 1 µM; that for `CCOC(=O)Nc1ccc(-c2nnc(C3(c4ccccc4)CC3)n2C)c(Cl)c1` [Ex. 1-38] was below 0.01 µM.
Take `Cn1c(-c2ccc(N3CCC(C(=O)NCC(F)(F)F)CC3)cc2Cl)nnc1C1(c2ccccc2)CC1` [Ex. 1-116]: the IC50 is below 0.01 µM.
For `Cn1c(N2CCC(Oc3ncc(Cl)cc3Cl)CC2)nnc1C1(c2ccc(Cl)cc2)CC1` [Ex. 2-29] the value was 0.01 to 1 µM; for `Cn1c(C2CCN(c3ncccc3Cl)CC2)nnc1C1(c2ccccc2)CC1` [Ex. 1-14], below 0.01 µM; for `CN(c1ccccc1)c1nnc(C2(c3ccc(F)cc3)CC2)n1C` [Ex. 2-96], below 0.01 µM.
On to `Cn1c(-c2ccc(C(=O)NCC(N)=O)cc2Cl)nnc1C1(c2ccccc2)CC1` [Ex. 1-82], for which the IC50 was below 0.01 µM.
Regarding `Cc1ccc(C2(c3nnc(N4CCC(Oc5ncc(Cl)cc5Cl)CC4)n3C)CC2)cc1` [Ex. 2-82], the IC50 is 0.01 to 1 µM.
For the compound `CC(=O)N(C)C1CCN(c2nnc(C3(c4ccccc4)CC3)n2C)CC1` [Ex. 2-13], the IC50 lay in the range of 0.01 to 1 µM.
The value for `CN(C)C(=O)c1cccc(OC2CCN(c3nnc(C4(c5ccccc5)CC4)n3C)CC2)c1` [Ex. 2-57] was 0.01 to 1 µM; that for `Cn1c(C2(c3ccccc3)CC2)nnc1[C@H]1CC[C@H](CO)CC1` [Ex. 1-105] was below 0.01 µM.
For `CC(C)n1c(-c2cccc(N3CCOC3=O)c2)nnc1C1(c2ccc(F)cc2)CC1` [Ex. 1-154] the value was below 0.01 µM; for `OCCn1c(C2CCN(c3c(Cl)cncc3Cl)CC2)nnc1C1(c2ccccc2)CC1` [Ex. 1-5], below 0.01 µM; for `Cn1c(N2CCC(Oc3ccc(Cl)c(CO)c3)CC2)nnc1C1(c2ccccc2)CC1` [Ex. 2-63], 0.01 to 1 µM.
For `CC(=O)Nc1ccc(-c2nnc(C3(c4ccccc4)CC3)n2C)c(Cl)c1` [Ex. 1-21] the value was below 0.01 µM.
`Cn1c(-c2ccc(N3CCOC3=O)cc2Cl)nnc1C1(c2ccc(F)cc2)CC1` [Ex. 1-118]: the IC50 is below 0.01 µM.
For `Cn1c(N2CCC(Oc3ccc(Cl)c(C(N)=O)c3)CC2)nnc1C1(c2ccccc2)CC1` [Ex. 2-66] the value was 0.01 to 1 µM.
For `Cn1c(-c2ccc(N3CCC(N)CC3)cc2Cl)nnc1C1(c2ccccc2)CC1` [Ex. 1-64], the IC50 lay in the range of 0.01 to 1 µM.
For `Cn1c(-c2ccc(N3CCC4(CC3)OCCO4)cc2Cl)nnc1C1(c2ccccc2)CC1` [Ex. 1-61] the value was 0.01 to 1 µM; for `Cn1c(N2CCC(C)(CO)CC2)nnc1C1(c2ccccc2)CC1` [Ex. 2-68], below 0.01 µM.
Consider `Cn1c(-c2ccc(N3CCN(S(C)(=O)=O)CC3)cc2Cl)nnc1C1(c2ccccc2)CC1` [Ex. 1-50], for which the half-inhibitory concentration (IC50) is below 0.01 µM.
The value for `Cn1c(-c2ccc(N3CCCC3=O)cc2Cl)nnc1C1(c2ccccc2)CC1` [Ex. 1-27] was 0.01 to 1 µM.
For `Cn1c(-c2ccc(S(C)(=O)=O)cc2Cl)nnc1C1(c2ccccc2)CC1` [Ex. 1-71] the value was below 0.01 µM.
For `Cn1c(N2CCC(NC(=O)OC(C)(C)C)CC2)nnc1C1(c2ccccc2)CC1` [Ex. 2-7] the value was 0.01 to 1 µM; for `Cn1c(-c2ccc(N3CCNCC3)cc2Cl)nnc1C1(c2ccccc2)CC1` [Ex. 1-48], 0.01 to 1 µM.
For the compound `Cn1c(-c2ccc(Cl)cc2F)nnc1C1(c2ccccc2)CC1` [Ex. 1-95], the IC50 was below 0.01 µM.
As to `Cn1c(N2CCC(Oc3cccc(C(=O)O)c3)CC2)nnc1C1(c2ccccc2)CC1` [Ex. 2-45], the IC50 was 0.01 to 1 µM.
The value for `CNC(=O)c1ccc(-c2nnc(C3(c4ccccc4)CC3)n2C)c(Cl)c1` [Ex. 1-75] was below 0.01 µM; that for `Cn1c(-c2ccc(N3CCCCC3)cc2Cl)nnc1C1(c2ccccc2)CC1` [Ex. 1-53] was below 0.01 µM.

What is called IC50 is the concentration needed to halve the response being measured.
